The target in series [1] is NR2B (Rattus norvegicus (Rat), UniProt Q00960). The experiment in a line: NR2B rat cortical neuron calcium influx assay. It is filed as cell-based. The note with it: rat cortical neurons, glutamate and glycine stimulated calcium influx. From the text:
Example 1: NR2B Rat Cortical Neuron Calcium Influx Assay Protocol
Embryonic day 18 timed pregnant Sprague Dawley rats were euthanized according to Institutional Animal Care and Use Committee (IACUC) protocol. After cutting medially through the skin and exposing the uterus and embryos, fetuses were removed and placed in cold Hibernate medium. Each embryo's brain was extracted and cerebral cortices were isolated by removing the midbrain and meninges. The dissected cortices were then dissociated into the neurons using papain dissociation system (Worthington Biochemical Corporation) according the manufacturer's protocol.
Dissociated neurons were counted and plated into 384-well poly-D-lysine coated plates (Corning® BioCoat™) at a density of 20,000 cells/well in 30 μL of Neurobasal/B27 complete medium. Neurons were cultured at 37° C. for 2 days. On the assay day, medium was removed and cells were incubated with 20 μL/well of calcium dye (Calcium 6 Assay Kit, Molecular Devices) suspended in HBSS with 1.8 mM Ca^2+ (Ca-HBSS) according to the manufacturer's instruction.
Compounds of interest from 10 mM stock were serially diluted into 3× of desired concentrations in 1.8 mM Ca-HBSS, and 10 μL were added to the wells. Compound and the neurons were incubated at 37° C. for 2 hours in the dark.
On FDSS7000EX (Hamamatsu Photonics), a fluorescence measuring instrument, 10 μL of 4× ligand solution containing glutamate and glycine made in 1.8 mM Ca^2+-HBSS were added to each well. The fluorescent signals were collected before and after the addition of ligands for a total of 2 minutes. The data were converted to a ratio of the peak fluorescence to the fluorescence at the beginning of the measurement.
Each data point was measured in duplicates. Dose response curves were used to identify IC50 and maximal inhibition values. IC50 represents the concentration in μM of compound at which there is a half-maximal compound effect. Maximal inhibition of a compound is expressed as a percent of the highest inhibition of activity over a no compound control.

For series [2], the target named is P-glycoprotein (P-gp) (Homo sapiens (Human), UniProt P08183). The experiment in a line: MDCK-MDR1 permeability / efflux assay. It counts as in vitro ADME. The settings on record: dog, MDCK-MDR1, pH 7.4, efflux ratio, read-out: MDCK-MDR1 ER. The protocol:
Example 4. Experimental Measurement of Efflux with MDCK-MDR1 Protocol
Cell Culture. MDCK-MDR1 cells were cultured at 37° C. under a 5% CO2 atmosphere, at 95% relative humidity in DMEM containing 10% FBS, penicillin-streptomycin (100 μg/mL), and 2 mM Ala-Gln. Cells were passaged every 3-4 days. For assay purposes, cells were seeded at a density of approximately 265,000 cells/cm^2 of a 96-well Transwell plate (Corning Life Sciences, Acton, MA) and cultured in the same media noted above for a period of 4 days.
Assay. The determination of the apparent permeability (Papp) was performed in both the A→B (apical to basal) and B→A (basal to apical) directions where each compound was assayed in triplicate. The zwitterion bestatin, a poorly permeably compound, was used as marker of monolayer integrity. To initiate the assay, media was aspirated, and the cells and basal chambers were washed three times with Hank's Balanced Salt Solution (HBSS) containing 10 mM HEPES (pH 7.4). Compound test solutions were prepared in triplicate in HBSS containing 10 mM HEPES (pH 7.4) and 0.02% bovine serum albumin (BSA) to a final concentration of 10 μM and centrifuged for 2 min at 4000×g, then applied to the donor compartment at time zero. Additionally, at time zero, a 37° C. solution without test articles (HBSS+10 mM HEPES (pH 7.4) plus 0.02% BSA) was added to the receiver chamber of the Transwell plate. A time zero sample of the donor solution was also sampled for further analysis. The assay was conducted for a period of 120 min at 37° C. without shaking. At the time of assay termination, samples were taken from each donor compartment, and each acceptor compartment of the Transwell plate. To each of the 0 and 120 min samples was added an internal standard solution containing glyburide in water:acetonitrile, 50:50 (v:v). Concentration curves were prepared using a Labcyte Echo in the same matrix noted above. Samples and concentration curve samples were centrifuged for 10 min at 4000×g and subsequently analyzed by mass spectroscopy.
Mass Spectroscopy. Assay samples were loaded onto a RapidFire C4 cartridge by means of a RapidFire autosampler (Agilent, Santa Clara, CA). […] Mass spectroscopy was performed using an AB Sciex AP15500 (Sciex, Frammingham, MA) equipped with a turbo ion spray source. The analyte concentration was calculated from the chromatographic peak area ratio of analyte to internal standard (glibenclamide, m/z 494→169), using Multiquant software V3.0 (Sciex, Framingham, MA).
Calculations. Papp values were determined as
Percent recovery values were determined as:
where VA is the volume of the acceptor (mL), S is the surface area of the membrane, D0 is the donor solution concentration at t=0, D120 is the donor solution concentration at t=120, A120 is the acceptor solution concentration at t=120, and t=time (seconds).
The suitability of a compound for oral dosing and/or for use as a CNS therapeutic is usually conducted by MDCK-MDR1 permeability assay to investigate its drug efflux potential mediated by P-glycoprotein (P-gp). MDCK-MDR1 permeability has been used as a predictor of blood brain barrier permeability in terms of efflux ratio (ER).

The record followed here is patent publication US20240208953A1, “"Cyclopenta[c]pyrrol Negative Allosteric Modulators of NR2B"” (Novartis AG, priority 2021, published 2024).

As usually defined, the IC50 is the midpoint of a concentration-inhibition curve.

P-glycoprotein (P-gp), sequence (P08183 whole entry): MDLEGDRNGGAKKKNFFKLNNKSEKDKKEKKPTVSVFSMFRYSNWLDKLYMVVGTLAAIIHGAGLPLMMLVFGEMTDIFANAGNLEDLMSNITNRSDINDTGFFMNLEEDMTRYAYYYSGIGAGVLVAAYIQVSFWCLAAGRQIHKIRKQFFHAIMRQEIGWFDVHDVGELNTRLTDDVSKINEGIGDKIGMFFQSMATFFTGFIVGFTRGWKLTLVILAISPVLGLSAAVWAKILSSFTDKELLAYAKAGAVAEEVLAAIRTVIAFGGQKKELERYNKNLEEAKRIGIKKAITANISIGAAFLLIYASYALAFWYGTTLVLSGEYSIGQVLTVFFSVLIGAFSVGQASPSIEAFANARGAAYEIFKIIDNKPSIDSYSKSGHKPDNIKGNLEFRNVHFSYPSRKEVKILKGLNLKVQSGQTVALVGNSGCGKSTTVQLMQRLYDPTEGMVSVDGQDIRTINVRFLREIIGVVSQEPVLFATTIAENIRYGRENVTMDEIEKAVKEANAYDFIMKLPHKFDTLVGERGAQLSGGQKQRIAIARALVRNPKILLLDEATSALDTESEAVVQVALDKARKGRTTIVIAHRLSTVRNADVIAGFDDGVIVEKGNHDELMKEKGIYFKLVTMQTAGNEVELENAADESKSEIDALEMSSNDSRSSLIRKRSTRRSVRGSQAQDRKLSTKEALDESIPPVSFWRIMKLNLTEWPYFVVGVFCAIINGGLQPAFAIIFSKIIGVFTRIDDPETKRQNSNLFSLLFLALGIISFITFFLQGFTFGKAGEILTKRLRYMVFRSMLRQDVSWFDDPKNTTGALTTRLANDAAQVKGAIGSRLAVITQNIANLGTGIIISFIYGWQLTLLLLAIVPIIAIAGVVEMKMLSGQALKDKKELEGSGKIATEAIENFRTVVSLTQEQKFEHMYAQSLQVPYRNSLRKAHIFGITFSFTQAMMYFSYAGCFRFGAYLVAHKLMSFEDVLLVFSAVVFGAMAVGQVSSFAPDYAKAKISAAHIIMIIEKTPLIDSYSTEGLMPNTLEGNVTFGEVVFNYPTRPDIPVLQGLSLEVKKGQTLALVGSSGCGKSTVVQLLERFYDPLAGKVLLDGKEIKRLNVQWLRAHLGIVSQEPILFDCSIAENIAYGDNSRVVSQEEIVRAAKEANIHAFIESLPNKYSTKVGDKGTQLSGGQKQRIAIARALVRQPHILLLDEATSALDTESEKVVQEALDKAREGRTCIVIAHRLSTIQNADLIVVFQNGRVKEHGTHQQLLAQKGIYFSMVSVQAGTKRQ
NR2B, sequence (Q00960 27-1482, other chains not shown): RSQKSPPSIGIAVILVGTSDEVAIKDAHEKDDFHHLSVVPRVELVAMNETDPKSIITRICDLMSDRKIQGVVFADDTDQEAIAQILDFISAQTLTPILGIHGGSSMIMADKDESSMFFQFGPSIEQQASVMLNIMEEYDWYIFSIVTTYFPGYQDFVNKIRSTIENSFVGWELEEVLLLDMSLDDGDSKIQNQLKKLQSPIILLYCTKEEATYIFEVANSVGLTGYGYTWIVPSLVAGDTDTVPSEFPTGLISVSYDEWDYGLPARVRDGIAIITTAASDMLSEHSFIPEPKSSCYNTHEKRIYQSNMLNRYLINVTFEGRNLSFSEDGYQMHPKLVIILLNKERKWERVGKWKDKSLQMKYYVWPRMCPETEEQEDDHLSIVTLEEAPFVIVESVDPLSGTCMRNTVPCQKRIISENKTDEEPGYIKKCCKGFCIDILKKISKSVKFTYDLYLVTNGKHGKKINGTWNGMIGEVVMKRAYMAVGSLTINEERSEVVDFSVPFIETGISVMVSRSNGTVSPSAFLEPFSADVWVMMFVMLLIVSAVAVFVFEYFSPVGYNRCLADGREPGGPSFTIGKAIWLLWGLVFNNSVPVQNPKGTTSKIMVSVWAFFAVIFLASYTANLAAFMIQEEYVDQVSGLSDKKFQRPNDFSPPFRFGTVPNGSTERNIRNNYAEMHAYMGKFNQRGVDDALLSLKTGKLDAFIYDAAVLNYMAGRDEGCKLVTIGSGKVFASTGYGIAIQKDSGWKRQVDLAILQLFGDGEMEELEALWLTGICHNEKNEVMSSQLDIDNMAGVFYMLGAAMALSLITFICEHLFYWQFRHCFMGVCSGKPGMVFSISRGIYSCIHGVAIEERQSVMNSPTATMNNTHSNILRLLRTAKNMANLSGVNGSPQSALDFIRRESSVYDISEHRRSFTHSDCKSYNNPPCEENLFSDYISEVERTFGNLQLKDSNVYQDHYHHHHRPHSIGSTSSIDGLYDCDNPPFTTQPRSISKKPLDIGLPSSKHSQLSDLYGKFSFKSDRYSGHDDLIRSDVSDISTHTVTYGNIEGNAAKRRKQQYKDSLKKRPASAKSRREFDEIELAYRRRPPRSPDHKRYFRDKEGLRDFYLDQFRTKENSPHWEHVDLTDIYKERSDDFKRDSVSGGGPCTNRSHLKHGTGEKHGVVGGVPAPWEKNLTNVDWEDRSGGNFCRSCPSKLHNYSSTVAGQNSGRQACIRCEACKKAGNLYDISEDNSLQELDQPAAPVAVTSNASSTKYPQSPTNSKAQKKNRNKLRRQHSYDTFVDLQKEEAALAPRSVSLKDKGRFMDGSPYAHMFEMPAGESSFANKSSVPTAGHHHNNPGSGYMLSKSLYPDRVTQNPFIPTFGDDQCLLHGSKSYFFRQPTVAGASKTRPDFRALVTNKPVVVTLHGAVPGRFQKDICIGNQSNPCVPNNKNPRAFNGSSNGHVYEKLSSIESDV

Turning to `O=C1Nc2ccc([C@@H](O)CN3C[C@H]4C[C@H](Oc5ccccc5F)C[C@@]4(O)C3)cc2CS1` (single isomer, unassigned) [Example 15A], in series [1], the IC50 came to 0.0015 nM. Moreover, in series [2], the efflux ratio at 120 min, 10 μM is 1.6.

For the compound `O=C1Cc2cc([C@@H](O)CN3C[C@H]4C[C@H](Oc5ccccc5)C[C@@]4(O)C3)ccc2N1` (single isomer, unassigned) [Example 2A], the IC50 in series [1] came out at 100 nM. Besides, the efflux ratio at 120 min, 10 μM in series [2] was 3.3.

For `O=C1CCc2cc([C@@H](O)CN3C[C@@H]4C[C@@H](Oc5ccc(F)cc5)C[C@]4(O)C3)ccc2N1` (single isomer, unassigned) [Example 22C], the IC50 in series [1] amounted to 1.4 nM. Also, the efflux ratio at 120 min, 10 μM in series [2] was found to be 1.43.

Consider `O=C1Nc2ccc([C@H](O)CN3C[C@H]4C[C@H](Oc5ccccc5F)C[C@@]4(O)C3)cc2CO1` (single isomer, unassigned) [Example 41B], for which, in series [1], the IC50 turned out to be 0.23 nM. The efflux ratio at 120 min, 10 μM in series [2] amounted to 2.44.

As for `O=C1Nc2c(F)cc([C@H](O)CN3C[C@H]4C[C@H](Oc5ccccc5F)C[C@@]4(O)C3)cc2CO1` (single isomer, unassigned) [Example 35B], the IC50 in series [1] stood at 1.3 nM. In addition, the efflux ratio at 120 min, 10 μM in series [2] was 2.04.

Regarding `O=C1CCc2c(ccc([C@@H](O)CN3C[C@H]4C[C@H](Oc5ccccc5)C[C@@]4(O)C3)c2F)N1` (single isomer, unassigned) [Example 9A], in series [1], the IC50 stood at 2.7 nM. In series [2], the efflux ratio at 120 min, 10 μM was 1.06.

With `O=C1CCc2c(ccc([C@H](O)CN3C[C@H]4C[C@H](Oc5ccccc5)C[C@@]4(O)C3)c2F)N1` (single isomer, unassigned) [Example 9B], the IC50 in series [1] was 4.1 nM. For the same compound, the efflux ratio at 120 min, 10 μM in series [2] was found to be 1.4.

Regarding `O=C1Nc2ccc([C@H](O)CN3C[C@H]4C[C@H](Oc5ccccc5)C[C@@]4(O)C3)c(F)c2CO1` (single isomer, unassigned) [Example 34B], the IC50 in series [1] is 1.1 nM. The efflux ratio at 120 min, 10 μM in series [2] is 3.47.

As to `O[C@@H](CN1C[C@H]2C[C@H](Oc3ccccc3F)[C@H](O)[C@@]2(O)C1)c1cnc2[nH]ccc2c1` (single isomer, unassigned) [Example 44A], the IC50 in series [1] came out at 170 nM. Moreover, the efflux ratio at 120 min, 10 μM in series [2] worked out at 6.09.

Turning to `O=C1CCCc2cc([C@@H](O)CN3C[C@H]4C[C@H](Oc5ccccc5F)C[C@@]4(O)C3)ccc2N1` (single isomer, unassigned) [Example 43A], in series [1], the concentration for half-maximal inhibition (IC50) was 0.034 nM. Also, the efflux ratio at 120 min, 10 μM in series [2] stood at 2.16.

In the case of `O=C1CCc2cc([C@@H](O)CN3C[C@@H]4C[C@@H](Oc5ccc(F)cc5F)C[C@]4(O)C3)ccc2N1` (single isomer, unassigned) [Example 25C], the IC50 in series [1] turned out to be 0.24 nM. Moreover, the efflux ratio at 120 min, 10 μM in series [2] is 2.74.

`O=C1Cc2cc([C@@H](O)CN3C[C@@H]4C[C@@H](Oc5ccccc5)[C@@H](O)[C@]4(O)C3)ccc2N1` [Example 3A, 5-((R)-2-((3aR,4R,5R,6aS)-3a,4-dihydroxy-5-phenoxyhexahydrocyclopenta[c]pyrrol-2(1H)-yl)-1-hydroxyethyl)indolin-2-one]: the IC50 in series [1] was found to be 5490 nM. For the same compound, the efflux ratio at 120 min, 10 μM in series [2] came to 7.49.

In the case of `O=C1Nc2c(cc([C@@H](O)CN3C[C@H]4C[C@H](Oc5ccccc5)C[C@@]4(O)C3)c(F)c2F)CO1` (single isomer, unassigned) [Example 38A], the IC50 in series [1] came out at 5.1 nM. In series [2], the efflux ratio at 120 min, 10 μM amounted to 1.58.

Turning to `O=C1Nc2ccc([C@H](O)CN3C[C@H]4C[C@H](Oc5ccccc5F)C[C@@]4(O)C3)cc2CS1` (single isomer, unassigned) [Example 15B], in series [1], the IC50 came to 0.0019 nM. Further, in series [2], the efflux ratio at 120 min, 10 μM came out at 1.92.

Consider `O=C1COc2cc([C@@H](O)CN3C[C@H]4C[C@H](Oc5ccccc5)C[C@@]4(O)C3)cc(F)c2N1` (single isomer, unassigned) [Example 13A], for which, in series [1], the IC50 amounted to 86 nM. Besides, the efflux ratio at 120 min, 10 μM in series [2] is 1.22.

Turning to `O=C1CCc2cc([C@@H](O)CN3C[C@H]4C[C@H](Oc5ccccc5)[C@H](O)[C@@]4(O)C3)ccc2N1` [Example 4A, 6-((R)-2-((3aS,4S,5S,6aR)-3a,4-dihydroxy-5-phenoxyhexahydrocyclopenta[c]pyrrol-2(1H)-yl)-1-hydroxyethyl)-3,4-dihydroquinolin-2(1H)-one], in series [1], the IC50 was 13 nM. Moreover, in series [2], the efflux ratio at 120 min, 10 μM worked out at 6.99.

For the compound `O=C1CCc2cc([C@@H](O)CN3C[C@@H]4C[C@@H](Oc5cc(F)ccc5F)C[C@]4(O)C3)ccc2N1` (single isomer, unassigned) [Example 26C], the IC50 in series [1] turned out to be 1.3 nM. Further, in series [2], the efflux ratio at 120 min, 10 μM was determined as 3.27.

Turning to `O=C1CCc2cc([C@H](O)CN3C[C@@H]4C[C@@H](Oc5cccc(F)c5F)C[C@]4(O)C3)ccc2N1` (single isomer, unassigned) [Example 24D], the IC50 in series [1] amounted to 0.056 nM. For the same compound, the efflux ratio at 120 min, 10 μM in series [2] came to 2.64.

In the case of `O=C1CCc2cc([C@H](O)CN3C[C@@H]4C[C@@H](Oc5c(F)cccc5F)C[C@]4(O)C3)ccc2N1` (single isomer, unassigned) [Example 27D], the 50% inhibitory concentration (IC50) in series [1] amounted to 1.4 nM. For the same compound, the efflux ratio at 120 min, 10 μM in series [2] amounted to 2.05.

As for `O=c1[nH]c2ccc([C@@H](O)CN3C[C@H]4C[C@H](Oc5ccccc5F)C[C@@]4(O)C3)cc2s1` (single isomer, unassigned) [Example 18A], the IC50 in series [1] was under 0.0021 nM. Besides, in series [2], the efflux ratio at 120 min, 10 μM is 1.61.

Turning to `O=C1Nc2ccc([C@@H](O)CN3C[C@H]4C[C@H](Oc5ccccc5F)C[C@@]4(O)C3)cc2CCO1` (single isomer, unassigned) [Example 12A], the IC50 in series [1] worked out at 0.3 nM. Further, in series [2], the efflux ratio at 120 min, 10 μM was found to be 2.81.

Take `O=C1CCCc2cc([C@@H](O)CN3C[C@H]4C[C@H](Oc5ccccc5)C[C@@]4(O)C3)cc(F)c2N1` (single isomer, unassigned) [Example 30A]: in series [1], the IC50 came out at 280 nM. Moreover, the efflux ratio at 120 min, 10 μM in series [2] stood at 1.18.

For the compound `O=C1Nc2ccc([C@@H](O)CN3C[C@H]4C[C@H](Oc5ccccc5)C[C@@]4(O)C3)cc2CS1` (single isomer, unassigned) [Example 14A], in series [1], the IC50 is 0.011 nM. Moreover, in series [2], the efflux ratio at 120 min, 10 μM stood at 1.51.

In the case of `O=C1Nc2ccc([C@@H](O)CN3C[C@H]4C[C@H](Oc5ccccc5F)C[C@@]4(O)C3)cc2CO1` (single isomer, unassigned) [Example 41A], the IC50 in series [1] stood at 0.3 nM. The efflux ratio at 120 min, 10 μM in series [2] is 1.86.
